Measured values taken from patent publication US20100016274A1, “BETA-LACTAM CANNABINOID RECEPTOR MODULATORS” (priority 2006, published 2010).

biological target: T1, cannabinoid receptor-1 (CB1), CB1R-containing cell membrane (Homo sapiens, UniProt P21554); test: biochemical; type: binding; settings: displacement of 3H-CP55940 (1 nM) on CB1 receptors; read-out: IC50
T1 construct: purchased Applied Cell Sciences Inc, Rockville, Md
Protocol: Method A using cell membranes. A compound is dissolved in DMSO and diluted to 1 M as a stock solution. […] A CB1R-containing cell membrane (Applied Cell Sciences Inc, Rockville, Md.) is diluted with binding buffer to a protein concentration of 28 μg/ml.
(§1) The mixture is incubated for 90 min at room temperature, then filtered through Whatman glass fiber C disc filter in a vacuum manifold. The filter is washed three times each with 2.5 ml cold wash buffer (binding buffer with only 2.5 mg/ml BSA). The vacuum-dried filter is transferred to a scintillation vial, treated with 3 ml Eco-Scint, and the radioactivity is read on a Beckman LS6500 scintillation counter from which an IC50 value is calculated. The corresponding Ki values are obtained from serial dilutions according to this method, and calculated through the use of a non-linear regression program (Graphpad Inc, San Diego, Calif.).

T1 sequence (P21554 whole entry, species assumed): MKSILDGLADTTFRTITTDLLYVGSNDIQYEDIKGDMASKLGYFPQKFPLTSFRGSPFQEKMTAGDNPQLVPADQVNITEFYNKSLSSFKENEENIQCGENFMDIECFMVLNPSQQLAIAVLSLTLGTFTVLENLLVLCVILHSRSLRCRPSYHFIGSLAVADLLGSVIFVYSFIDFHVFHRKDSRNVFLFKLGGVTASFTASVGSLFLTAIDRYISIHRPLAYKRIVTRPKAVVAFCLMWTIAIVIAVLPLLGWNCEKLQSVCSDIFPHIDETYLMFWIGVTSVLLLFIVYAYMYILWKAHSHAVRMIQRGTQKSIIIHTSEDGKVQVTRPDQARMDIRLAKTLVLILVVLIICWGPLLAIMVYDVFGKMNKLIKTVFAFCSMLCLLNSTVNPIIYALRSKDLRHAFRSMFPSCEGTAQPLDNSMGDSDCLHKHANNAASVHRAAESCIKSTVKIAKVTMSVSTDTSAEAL

| Compound | IC50 |
| --- | --- |
| O=C(CC[C@@H](C(=O)N1CCN(CCc2cccs2)CC1)N1C(=O)[C@@H](N2C(=O)OC[C@@H]2c2ccccc2)[C@H]1/C=C/c1ccccc1)NCc1cc(F)cc(C(F)(F)F)c1 [Example 73G] | ~10 µM |
| C[C@@H](NC(=O)[C@H](CCC(=O)N1CCN(C2CCCCC2)CC1)N1C(=O)[C@@H](N2C(=O)OC[C@@H]2c2cccc(Cl)c2)[C@H]1/C=C/c1ccccc1)c1ccccc1 [Example 73H] | ~10 µM |

biological target: T2, cannabinoid receptor-2 (CB2), CB2R-containing cell membrane; hCB2 receptors (Homo sapiens, UniProt P34972); test: Cannabinoid Receptor-2 (CB2) Binding Assay, Method A using cell membranes (displacement of 3H-CP55940); settings: displacement of 3H-CP55940 (1 nM), CB2R-containing cell membrane
T2 construct: purchased Applied Cell Sciences Inc, Rockville, Md
T2 sequence (P34972 whole entry): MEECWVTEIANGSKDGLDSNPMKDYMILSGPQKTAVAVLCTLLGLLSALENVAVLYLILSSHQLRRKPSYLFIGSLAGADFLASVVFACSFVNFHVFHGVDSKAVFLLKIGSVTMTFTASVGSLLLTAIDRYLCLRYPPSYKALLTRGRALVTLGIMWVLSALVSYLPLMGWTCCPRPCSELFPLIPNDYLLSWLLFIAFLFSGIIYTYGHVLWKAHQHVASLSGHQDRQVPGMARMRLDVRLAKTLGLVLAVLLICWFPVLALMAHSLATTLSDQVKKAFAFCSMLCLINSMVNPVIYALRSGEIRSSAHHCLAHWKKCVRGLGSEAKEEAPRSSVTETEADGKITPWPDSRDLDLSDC
Protocol: Method A using cell membranes. A compound is dissolved in DMSO and diluted to 1 M as a stock solution. […] A CB2R-containing cell membrane (Applied Cell Sciences Inc, Rockville, Md.) is diluted with binding buffer to a protein concentration of 28 μg/ml.
as §1

| Compound | IC50 |
| --- | --- |
| CC(C)(C)OC(=O)CCC(C(=O)N1CCN(CCc2ccccc2)CC1)N1C(=O)C(N2C(=O)OCC2c2ccccc2)C1C=Cc1ccccc1 [Example 19E, 2(S)-(tert-Butoxycarbonylethyl)-2-[3(S)-(4(S)-phenyloxazolidin-2-on-3-yl)-4(R)-(2-styryl)azetidin-2-on-1-yl]acetic acid N-[4-(2-phenylethyl)]piperazinamide] | <10 µM |
| CC(C)(C)OC(=O)CC(C(=O)NCc1cccc(C(F)(F)F)c1)N1C(=O)C(N2C(=O)OCC2c2ccccc2)C1C=Cc1ccccc1 [Example 19F, 2(R)-(tert-Butoxycarbonylmethyl)-2-[3(S)-(4(S)-phenyloxazolidin-2-on-3-yl)-4(R)-(2-styryl)azetidin-2-on-1-yl]acetic acid N-(3-trifluoromethylbenzyl)amide] | <1 µM |
| CC(C)(C)OC(=O)CCC(C(=O)NCc1cccc(C(F)(F)F)c1)N1C(=O)C(N2C(=O)OCC2c2ccccc2)C1C=Cc1ccccc1 [Example 19H, 2(R)-(tert-Butoxycarbonylethyl)-2-[3 (S)-(4(S)-phenyloxazolidin-2-on-3-yl)-4(R)-(2-styryl)azetidin-2-on-1-yl]acetic acid N-(3-trifluoromethylbenzyl)amide] | <1 µM |
| O=C(CC(C(=O)N1CCN(CCc2ccccc2)CC1)N1C(=O)C(N2C(=O)OCC2c2ccccc2)C1C=Cc1ccccc1)NCc1cccc(C(F)(F)F)c1 (stereo not drawn) [Example 28A] | <10 µM |
| O=C(NCc1cccc(C(F)(F)F)c1)C(CC(=O)N1CCC(N2CCCCC2)CC1)N1C(=O)C(N2C(=O)OCC2c2ccccc2)C1C=Cc1ccccc1 (stereo not drawn) [Example 31A] | 0.379 µM |
| O=C(NC1(c2cccc(F)c2)CCCC1)C(CCC(=O)N1CCN(C2CCCCC2)CC1)N1C(=O)C(N2C(=O)OCC2c2ccccc2)C1C=Cc1ccccc1 (stereo not drawn) [Example 42H] | ~10 µM |
| O=C(NC1(c2ccc(Cl)cc2)CC1)C(CCC(=O)N1CCN(C2CCCCC2)CC1)N1C(=O)C(N2C(=O)OCC2c2ccccc2)C1C=Cc1ccccc1 (stereo not drawn) [Example 42I] | ~10 µM |
| O=C(NC1(c2ccc(Cl)cc2)CCCC1)C(CCC(=O)N1CCN(C2CCCCC2)CC1)N1C(=O)C(N2C(=O)OCC2c2ccccc2)C1C=Cc1ccccc1 (stereo not drawn) [Example 42J] | ~10 µM |
| Cc1ccc(C2(NC(=O)C(CCC(=O)N3CCN(C4CCCCC4)CC3)N3C(=O)C(N4C(=O)OCC4c4ccccc4)C3C=Cc3ccccc3)CC2)cc1 (stereo not drawn) [Example 42K] | ~10 µM |
| Cc1ccc(C2(NC(=O)C(CCC(=O)N3CCN(C4CCCCC4)CC3)N3C(=O)C(N4C(=O)OCC4c4ccccc4)C3C=Cc3ccccc3)CCCC2)cc1 (stereo not drawn) [Example 42L] | ~10 µM |
| COc1ccc(C2(NC(=O)C(CCC(=O)N3CCN(C4CCCCC4)CC3)N3C(=O)C(N4C(=O)OCC4c4ccccc4)C3C=Cc3ccccc3)CC2)cc1 (stereo not drawn) [Example 42M] | ~10 µM |
| O=C(NCc1cccc(C(F)(F)F)c1)C(CCC(=O)N1CCN(CCc2ccccc2)CC1)N1C(=O)C(N2C(=O)OCC2c2ccccc2)C1C=Cc1ccccc1 (stereo not drawn) [Example 44B] | <1 µM |
| CCN1CCN(C(=O)CCC(C(=O)NCc2cccc(C(F)(F)F)c2)N2C(=O)C(N3C(=O)OCC3c3ccccc3)C2C(Br)=Cc2ccccc2)CC1 (stereo not drawn) [Example 45U] | <10 µM |
| O=C(C(CCCc1ccccc1)N1C(=O)C(N2C(=O)OCC2c2ccccc2)C1C=Cc1ccccc1)N1CCN(C2CCCCC2)CC1 (stereo not drawn) [Example 62E] | 0.539 µM |

same assay, conditions: displacement of 3H-CP55940, CB2R-containing cell membrane; from serial dilutions

| Compound | Ki |
| --- | --- |
| O=C(NCc1cccc(C(F)(F)F)c1)C(CC(=O)N1CCC(N2CCCCC2)CC1)N1C(=O)C(N2C(=O)OCC2c2ccccc2)C1C=Cc1ccccc1 (stereo not drawn) [Example 31A] | 0.253 µM |
| O=C(C(CCCc1ccccc1)N1C(=O)C(N2C(=O)OCC2c2ccccc2)C1C=Cc1ccccc1)N1CCN(C2CCCCC2)CC1 (stereo not drawn) [Example 62E] | 0.360 µM |
